# Reference: ChEMBL document CHEMBL1201862, “PubChem BioAssay data set” (2004)
# Calls of active or inactive are those of the source.
# Columns and labels:
# [1] = molecular target: T1, Sentrin-specific protease 8 (Homo sapiens, UniProt Q96LD8); type: functional
# T1 sequence (Q96LD8 whole entry): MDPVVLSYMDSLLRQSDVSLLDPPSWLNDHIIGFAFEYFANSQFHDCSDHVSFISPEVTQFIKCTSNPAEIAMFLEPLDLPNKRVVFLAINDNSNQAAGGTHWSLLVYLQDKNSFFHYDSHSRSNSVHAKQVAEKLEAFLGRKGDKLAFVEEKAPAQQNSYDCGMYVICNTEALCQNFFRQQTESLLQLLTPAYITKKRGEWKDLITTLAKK
# [2] = molecular target: T1, Sentrin-specific protease 8; type: functional; remark: listed apart in the source
# Cytochrome P450 2D6 = Cytochrome P450 2D6 (Homo sapiens, UniProt P10635);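 further: CYP2D6 member of a cytochrome P450 panel assay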
# Sequence of Cytochrome P450 2D6 (P10635 whole entry): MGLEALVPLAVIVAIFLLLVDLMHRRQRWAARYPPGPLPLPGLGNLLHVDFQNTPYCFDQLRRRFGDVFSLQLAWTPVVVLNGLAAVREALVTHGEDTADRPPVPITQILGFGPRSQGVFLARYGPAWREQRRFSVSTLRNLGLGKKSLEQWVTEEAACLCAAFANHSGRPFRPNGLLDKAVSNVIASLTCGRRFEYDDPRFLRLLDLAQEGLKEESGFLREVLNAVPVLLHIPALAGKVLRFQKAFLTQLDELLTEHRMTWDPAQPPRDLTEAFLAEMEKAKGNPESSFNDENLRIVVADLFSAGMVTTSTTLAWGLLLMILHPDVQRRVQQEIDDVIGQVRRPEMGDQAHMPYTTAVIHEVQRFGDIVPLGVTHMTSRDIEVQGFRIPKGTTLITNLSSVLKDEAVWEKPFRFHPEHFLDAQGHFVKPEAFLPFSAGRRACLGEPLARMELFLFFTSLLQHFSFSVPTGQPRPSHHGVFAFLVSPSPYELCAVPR
# Cytochrome P450 3A4 = Cytochrome P450 3A4 (Homo sapiens, UniProt P08684);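 further: CYP3A4 tested as one member of a cytochrome P450 panel screen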
# [3] = molecular target: DNA repair and recombination protein RAD54-like (Homo sapiens, UniProt Q92698); test: RAD54 Holliday junction migration blockers – biochemical, fluorescence, cherry-picked samples, dose series, confirmation (AID 651657); type: functional
# Sequence of DNA repair and recombination protein RAD54-like (Q92698 whole entry): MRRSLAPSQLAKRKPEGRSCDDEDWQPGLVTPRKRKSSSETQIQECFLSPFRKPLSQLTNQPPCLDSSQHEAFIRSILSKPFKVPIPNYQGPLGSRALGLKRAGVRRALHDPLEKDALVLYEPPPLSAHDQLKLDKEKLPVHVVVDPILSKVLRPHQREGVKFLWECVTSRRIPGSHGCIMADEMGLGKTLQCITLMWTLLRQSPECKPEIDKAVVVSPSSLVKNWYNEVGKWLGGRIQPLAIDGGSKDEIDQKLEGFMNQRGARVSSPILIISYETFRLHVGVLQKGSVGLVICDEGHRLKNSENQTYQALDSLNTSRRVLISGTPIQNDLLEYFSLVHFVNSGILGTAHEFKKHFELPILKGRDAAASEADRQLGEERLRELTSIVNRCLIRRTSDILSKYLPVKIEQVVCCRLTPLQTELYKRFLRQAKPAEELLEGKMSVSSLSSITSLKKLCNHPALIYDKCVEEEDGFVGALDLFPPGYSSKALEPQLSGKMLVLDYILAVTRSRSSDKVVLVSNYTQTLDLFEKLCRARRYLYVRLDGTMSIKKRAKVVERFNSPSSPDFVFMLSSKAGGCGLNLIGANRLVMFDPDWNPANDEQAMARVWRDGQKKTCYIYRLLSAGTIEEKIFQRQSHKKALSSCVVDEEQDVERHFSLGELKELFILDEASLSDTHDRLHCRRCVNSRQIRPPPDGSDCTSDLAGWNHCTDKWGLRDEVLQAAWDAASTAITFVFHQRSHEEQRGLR
# Steroidogenic factor 1 = Steroidogenic factor 1 (Homo sapiens, UniProt Q13285); test: Counterscreen for inverse agonists of the liver receptor homolog-1 (LRH-1; NR5A2): Luminescence-based cell-based high throughput dose response assay to identify inverse agonists of the Steroidogenic Factor 1 Nuclear Receptor (SF1; NR5A1).; type: functional
# Orexin receptor type 2 [4] = molecular target: T2, Orexin receptor type 2 (Homo sapiens, UniProt O43614); test: Counterscreen assay for antagonists of the orexin 1 receptor (OX1R; HCRTR1): Fluorescence-based cell-based dose response assay for antagonists of the orexin 2 receptor (OX2R; HCRTR2), run by assay provider.; type: functional
# T2 sequence (O43614 whole entry): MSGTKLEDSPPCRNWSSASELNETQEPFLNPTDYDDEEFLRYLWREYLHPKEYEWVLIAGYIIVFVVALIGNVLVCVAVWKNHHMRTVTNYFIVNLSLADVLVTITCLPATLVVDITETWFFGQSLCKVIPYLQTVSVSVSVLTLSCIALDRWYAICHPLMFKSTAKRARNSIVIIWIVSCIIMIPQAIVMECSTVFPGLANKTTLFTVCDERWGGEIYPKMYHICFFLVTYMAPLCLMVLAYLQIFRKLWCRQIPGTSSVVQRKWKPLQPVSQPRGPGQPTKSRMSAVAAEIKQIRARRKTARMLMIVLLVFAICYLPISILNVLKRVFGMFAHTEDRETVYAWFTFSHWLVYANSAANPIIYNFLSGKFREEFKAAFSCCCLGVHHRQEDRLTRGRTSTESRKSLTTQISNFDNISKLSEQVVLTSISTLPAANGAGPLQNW
# [5] = Counterscreen for antagonists of the orexin 1 receptor (OX1R; HCRTR1): Fluorescence-based cell-based high throughput dose response assay to identify antagonists of the parental CHO cell line. [Related pubchem assays (depositor defined):AID434989, AID435008, AID463079, AID485270, AID492963, AID492964, AID492965, AID493232, AID504699, AID504701]; type: functional
# [6] = molecular target: T3, Orexin/Hypocretin receptor type 1 (Homo sapiens, UniProt O43613); test: Fluorescence-based cell-based high throughput dose response assay for antagonists of the orexin 1 receptor (OX1R; HCRTR1). [Related pubchem assays (depositor defined):AID434989, AID435008, AID463079, AID485270, AID492963, AID492964, AID492965, AID493232, AID504717, AID504718]; type: functional
# T3 sequence (O43613 whole entry): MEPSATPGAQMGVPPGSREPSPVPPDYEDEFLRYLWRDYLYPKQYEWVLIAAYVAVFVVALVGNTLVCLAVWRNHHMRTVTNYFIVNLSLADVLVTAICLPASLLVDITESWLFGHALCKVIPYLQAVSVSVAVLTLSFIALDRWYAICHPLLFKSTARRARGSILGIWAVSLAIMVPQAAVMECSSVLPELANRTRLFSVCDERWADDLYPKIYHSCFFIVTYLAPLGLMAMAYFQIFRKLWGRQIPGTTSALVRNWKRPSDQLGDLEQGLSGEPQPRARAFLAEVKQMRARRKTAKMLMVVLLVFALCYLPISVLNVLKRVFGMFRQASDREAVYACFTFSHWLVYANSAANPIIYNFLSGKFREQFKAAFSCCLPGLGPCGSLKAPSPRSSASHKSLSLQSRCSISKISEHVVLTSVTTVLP
# Orexin receptor type 2 [7] = molecular target: T2, Orexin receptor type 2; test: Counterscreen assay for antagonists of the orexin 1 receptor (OX1R; HCRTR1): Homogeneous Time Resolved Fluorescence (HTRF)-based cell-based dose response assay for antagonists of the orexin 2 receptor (OX2R; HCRTR2), run by assay provider.; type: functional
# [8] = viability of uninfected HEp-2 cells – cell-based, HTS, cytotoxicity control for RSV inhibitor project, dose response (AID 2410); type: functional; conditions: human respiratory syncytial virus
# [9] = molecular target: T3, Orexin/Hypocretin receptor type 1; test: Homogeneous Time Resolved Fluorescence (HTRF)-based cell-based high throughput dose response assay for antagonists of the orexin 1 receptor (OX1R; HCRTR1). [Related pubchem assays (depositor defined):AID434989, AID435008, AID463079, AID485270, AID492963, AID492964, AID492965, AID493232, AID504717, AID504718]; type: functional
# [10] = molecular target: Eukaryotic translation initiation factor 4E (Mus musculus, UniProt P63073); test: blockers of eIF4G binding by eIF4E – biochemical, TR-FRET, dose response (AID 855); type: functional;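 further: potency for disrupting eIF4E binding to eIF4GI seen as loss of FRET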
# CHO-K1 = test: Counterscreen for antagonists of the orexin 1 receptor (OX1R; HCRTR1): Homogeneous time resolved fluorescence (HTRF)-based cell-based dose response assay to identify antagonists of the parental CHO-K1 cell line. [Related pubchem assays (depositor defined):AID434989, AID435008, AID463079, AID485270, AID492963, AID492964, AID492965, AID493232, AID504699, AID504701]; type: functional; conditions: Cricetulus griseus;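 further: potency for inhibition of ATP-stimulated IP1 production as antagonists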
# [11] = molecular target: Mitochondrial peptide methionine sulfoxide reductase (Bos taurus, UniProt P54149); type: functional;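 further: absorbance read-out, biochemical high-throughput dose-response screen for MsrA inhibitors, confirmatory; recombinant bovine MsrA coupled to E. coli TrxB with NADPH and selenocystamine; potency is for inhibitors of MsrA activity on DMSO substrate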
# [12] = molecular target: Ras and Rab interactor 1/Tyrosine-protein kinase ABL1 (Homo sapiens, UniProt P00519+Q13671); type: functional;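 further: biochemical TR-FRET dose-response test measuring inhibition of binding between Rin1 and Abl proteins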
# Sequence of Ras and Rab interactor 1/Tyrosine-protein kinase ABL1 (P00519 whole entry): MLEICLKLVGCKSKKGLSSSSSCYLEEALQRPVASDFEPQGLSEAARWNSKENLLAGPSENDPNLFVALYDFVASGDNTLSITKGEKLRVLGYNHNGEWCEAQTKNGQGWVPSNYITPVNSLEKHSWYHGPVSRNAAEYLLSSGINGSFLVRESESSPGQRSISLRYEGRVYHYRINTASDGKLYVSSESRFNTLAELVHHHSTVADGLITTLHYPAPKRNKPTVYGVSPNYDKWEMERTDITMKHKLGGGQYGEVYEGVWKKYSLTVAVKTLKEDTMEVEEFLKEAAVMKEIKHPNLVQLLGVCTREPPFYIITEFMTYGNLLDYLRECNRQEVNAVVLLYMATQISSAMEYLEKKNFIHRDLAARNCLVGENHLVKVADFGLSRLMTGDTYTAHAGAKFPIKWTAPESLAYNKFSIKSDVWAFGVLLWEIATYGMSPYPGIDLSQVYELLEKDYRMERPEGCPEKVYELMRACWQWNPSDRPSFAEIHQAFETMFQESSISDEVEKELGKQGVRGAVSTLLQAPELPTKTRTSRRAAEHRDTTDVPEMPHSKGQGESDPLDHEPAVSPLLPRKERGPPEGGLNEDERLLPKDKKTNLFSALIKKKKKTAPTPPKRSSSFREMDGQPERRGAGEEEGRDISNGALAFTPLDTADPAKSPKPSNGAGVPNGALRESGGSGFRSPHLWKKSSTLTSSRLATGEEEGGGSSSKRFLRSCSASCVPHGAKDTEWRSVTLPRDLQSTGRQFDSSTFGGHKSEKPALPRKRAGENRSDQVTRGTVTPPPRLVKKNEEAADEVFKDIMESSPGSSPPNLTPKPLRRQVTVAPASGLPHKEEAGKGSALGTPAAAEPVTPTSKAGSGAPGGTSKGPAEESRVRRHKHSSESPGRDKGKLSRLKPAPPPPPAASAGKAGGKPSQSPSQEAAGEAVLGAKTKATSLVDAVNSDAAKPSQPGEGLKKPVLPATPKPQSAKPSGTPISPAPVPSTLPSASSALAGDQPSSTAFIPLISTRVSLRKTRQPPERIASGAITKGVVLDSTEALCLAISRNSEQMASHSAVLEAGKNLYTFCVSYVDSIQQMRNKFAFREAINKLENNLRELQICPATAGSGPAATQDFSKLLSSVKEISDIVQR
# Sequence of Ras and Rab interactor 1/Tyrosine-protein kinase ABL1 (Q13671 whole entry): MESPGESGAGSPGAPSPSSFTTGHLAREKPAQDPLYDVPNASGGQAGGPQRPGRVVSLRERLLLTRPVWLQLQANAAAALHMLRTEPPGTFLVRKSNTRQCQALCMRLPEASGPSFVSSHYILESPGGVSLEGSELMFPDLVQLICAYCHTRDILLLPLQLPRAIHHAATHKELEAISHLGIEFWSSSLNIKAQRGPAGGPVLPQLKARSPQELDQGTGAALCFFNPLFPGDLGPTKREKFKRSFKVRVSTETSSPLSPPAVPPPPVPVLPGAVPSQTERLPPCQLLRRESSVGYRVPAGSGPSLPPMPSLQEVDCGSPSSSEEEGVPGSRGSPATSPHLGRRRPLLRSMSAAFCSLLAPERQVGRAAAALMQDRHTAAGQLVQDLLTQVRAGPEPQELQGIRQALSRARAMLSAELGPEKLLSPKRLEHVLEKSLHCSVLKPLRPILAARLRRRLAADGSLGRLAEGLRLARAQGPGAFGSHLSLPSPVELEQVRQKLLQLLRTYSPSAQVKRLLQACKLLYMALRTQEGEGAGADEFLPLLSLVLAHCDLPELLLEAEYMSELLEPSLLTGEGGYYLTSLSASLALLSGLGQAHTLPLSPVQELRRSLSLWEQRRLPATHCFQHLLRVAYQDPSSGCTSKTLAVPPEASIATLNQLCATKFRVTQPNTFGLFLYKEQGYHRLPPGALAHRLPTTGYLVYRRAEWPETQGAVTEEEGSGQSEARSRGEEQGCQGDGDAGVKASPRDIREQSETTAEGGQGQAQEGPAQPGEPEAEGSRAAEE
# Vero = test: mammalian cell viability reduction – secondary assay, cytotoxicity control for West Nile virus antiviral project, dose response (AID 1650); type: functional; conditions: Chlorocebus sabaeus
# [13] = molecular target: DNA (cytosine-5)-methyltransferase 1 (Homo sapiens, UniProt P26358); test: inhibition of DNA methylation by DNMT1 – biochemical, fluorescent molecular beacon, confirmation (AID 602386); type: functional
# [14] = molecular target: Tyrosine-protein phosphatase non-receptor type 11 (Homo sapiens, UniProt Q06124); test: PTPN11 enzyme inhibitors – biochemical, selectivity assay for STEP inhibitor project, dose response (AID 602367); type: functional; conditions: read-out: IC50_Mean
# Sequence of Tyrosine-protein phosphatase non-receptor type 11 (Q06124 whole entry): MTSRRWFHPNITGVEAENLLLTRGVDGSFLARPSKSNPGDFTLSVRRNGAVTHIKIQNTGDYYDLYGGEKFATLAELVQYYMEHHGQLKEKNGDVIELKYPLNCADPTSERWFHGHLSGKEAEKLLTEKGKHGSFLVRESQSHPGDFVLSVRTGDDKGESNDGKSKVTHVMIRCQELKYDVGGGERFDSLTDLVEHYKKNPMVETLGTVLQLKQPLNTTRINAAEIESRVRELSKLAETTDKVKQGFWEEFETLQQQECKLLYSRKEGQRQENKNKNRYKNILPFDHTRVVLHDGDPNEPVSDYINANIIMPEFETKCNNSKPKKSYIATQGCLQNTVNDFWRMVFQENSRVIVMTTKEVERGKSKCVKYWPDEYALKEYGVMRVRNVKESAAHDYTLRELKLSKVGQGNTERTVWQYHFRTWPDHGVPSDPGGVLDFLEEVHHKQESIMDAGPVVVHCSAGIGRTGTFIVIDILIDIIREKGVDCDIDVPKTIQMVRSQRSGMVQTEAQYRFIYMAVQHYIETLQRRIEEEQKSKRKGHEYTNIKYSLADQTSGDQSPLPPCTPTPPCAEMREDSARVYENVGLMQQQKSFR
# [15] = molecular target: Dual specificity protein phosphatase 3 (Homo sapiens, UniProt P51452); test: VHR phosphatase inhibition, dose response, selectivity assay for STEP inhibitor project, biochemical (AID 602374); type: functional; conditions: read-out: IC50_Mean
# Sequence of Dual specificity protein phosphatase 3 (P51452 whole entry): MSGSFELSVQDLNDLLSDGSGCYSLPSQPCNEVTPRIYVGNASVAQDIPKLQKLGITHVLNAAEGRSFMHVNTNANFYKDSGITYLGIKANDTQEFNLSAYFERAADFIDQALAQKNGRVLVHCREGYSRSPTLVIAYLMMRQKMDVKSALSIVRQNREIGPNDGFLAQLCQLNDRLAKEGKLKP
# [16] = molecular target: Tyrosine-protein phosphatase non-receptor type 5 (Homo sapiens, UniProt P54829); test: PTPN5 enzyme inhibition – biochemical, fluorescence intensity, uHTS hits, confirmation (AID 602372); type: functional; conditions: read-out: IC50_Mean
# Sequence of Tyrosine-protein phosphatase non-receptor type 5 (P54829 whole entry): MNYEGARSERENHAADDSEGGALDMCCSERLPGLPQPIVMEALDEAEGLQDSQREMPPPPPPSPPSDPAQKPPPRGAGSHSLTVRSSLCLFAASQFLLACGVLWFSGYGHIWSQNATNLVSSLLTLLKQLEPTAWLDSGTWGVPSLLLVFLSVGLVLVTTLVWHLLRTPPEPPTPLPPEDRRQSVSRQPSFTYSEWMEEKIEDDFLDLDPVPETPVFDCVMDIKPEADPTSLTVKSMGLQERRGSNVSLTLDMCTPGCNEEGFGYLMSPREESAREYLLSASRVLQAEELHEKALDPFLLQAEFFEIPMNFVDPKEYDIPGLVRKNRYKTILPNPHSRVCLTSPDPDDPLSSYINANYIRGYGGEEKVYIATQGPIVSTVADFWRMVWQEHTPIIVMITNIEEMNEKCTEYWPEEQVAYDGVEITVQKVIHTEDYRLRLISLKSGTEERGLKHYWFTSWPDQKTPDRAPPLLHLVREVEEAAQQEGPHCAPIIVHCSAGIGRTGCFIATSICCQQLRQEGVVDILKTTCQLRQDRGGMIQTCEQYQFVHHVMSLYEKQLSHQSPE
# [17] = molecular target: T4, Low molecular weight phosphotyrosine protein phosphatase (Homo sapiens, UniProt P24666); type: functional; conditions: read-out: IC50_Mean;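 further: Dose-response confirmation assay measuring inhibition of LMPTP enzyme activity by fluorescence intensity read-out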
# T4 sequence (P24666 whole entry): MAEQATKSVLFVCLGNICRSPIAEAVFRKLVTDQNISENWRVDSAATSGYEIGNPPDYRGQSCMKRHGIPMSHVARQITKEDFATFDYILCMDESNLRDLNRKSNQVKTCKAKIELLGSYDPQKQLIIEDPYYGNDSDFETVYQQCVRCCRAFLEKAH
# cells [18] = type: functional, cell-based
# cells [19] = type: functional, cell-based; remark: listed apart in the source
# [20] = molecular target: T5, Carboxy-terminal domain RNA polymerase II polypeptide A small phosphatase 1 (Homo sapiens, UniProt Q9GZU7); test: CTDSP1 inhibitors, concentration-response, biochemical, absorbance readout, ultra-high-throughput screen actives (AID 540297); type: functional
# T5 sequence (Q9GZU7 whole entry): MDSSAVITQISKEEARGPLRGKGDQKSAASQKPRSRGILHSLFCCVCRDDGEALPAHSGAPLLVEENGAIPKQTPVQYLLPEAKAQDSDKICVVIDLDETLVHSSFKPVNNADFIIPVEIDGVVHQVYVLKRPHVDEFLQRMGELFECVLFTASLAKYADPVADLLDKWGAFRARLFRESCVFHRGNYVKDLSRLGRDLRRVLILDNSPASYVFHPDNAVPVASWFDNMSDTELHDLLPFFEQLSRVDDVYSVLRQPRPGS
# Cytochrome P450 2C9 = Cytochrome P450 2C9 (Homo sapiens, UniProt P11712)
# Sequence of Cytochrome P450 2C9 (P11712 whole entry): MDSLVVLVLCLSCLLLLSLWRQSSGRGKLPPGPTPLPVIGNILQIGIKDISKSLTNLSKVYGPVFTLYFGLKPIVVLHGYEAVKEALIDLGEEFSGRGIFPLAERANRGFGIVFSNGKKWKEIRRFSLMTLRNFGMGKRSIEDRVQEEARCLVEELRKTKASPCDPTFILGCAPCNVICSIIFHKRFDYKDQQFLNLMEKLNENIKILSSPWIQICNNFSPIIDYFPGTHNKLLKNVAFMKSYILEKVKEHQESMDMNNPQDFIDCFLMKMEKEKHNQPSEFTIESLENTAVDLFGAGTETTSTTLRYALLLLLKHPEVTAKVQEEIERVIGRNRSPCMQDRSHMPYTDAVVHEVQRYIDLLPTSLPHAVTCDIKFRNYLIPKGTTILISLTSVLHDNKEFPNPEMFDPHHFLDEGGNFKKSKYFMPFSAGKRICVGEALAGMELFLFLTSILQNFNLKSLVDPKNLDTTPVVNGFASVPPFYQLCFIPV
# [21] = Luminescence Cell-Based Dose Confirmation HTS to Identify Inhibitors of Platelet Dense Granule Release. [Related pubchem assays: 1663 (Primary HTS), 1678 (Summary of Project)]; type: functional
# [22] = molecular target: Luciferin 4-monooxygenase (Photinus pyralis, UniProt P08659); test: inhibition of purified Photinus pyralis luciferase – biochemical, luminescence, dose response (AID 1891)
# [23] = molecular target: T6, DNA repair protein RAD52 homolog (Homo sapiens, UniProt P43351); type: functional, biochemical
# T6 sequence (P43351 whole entry): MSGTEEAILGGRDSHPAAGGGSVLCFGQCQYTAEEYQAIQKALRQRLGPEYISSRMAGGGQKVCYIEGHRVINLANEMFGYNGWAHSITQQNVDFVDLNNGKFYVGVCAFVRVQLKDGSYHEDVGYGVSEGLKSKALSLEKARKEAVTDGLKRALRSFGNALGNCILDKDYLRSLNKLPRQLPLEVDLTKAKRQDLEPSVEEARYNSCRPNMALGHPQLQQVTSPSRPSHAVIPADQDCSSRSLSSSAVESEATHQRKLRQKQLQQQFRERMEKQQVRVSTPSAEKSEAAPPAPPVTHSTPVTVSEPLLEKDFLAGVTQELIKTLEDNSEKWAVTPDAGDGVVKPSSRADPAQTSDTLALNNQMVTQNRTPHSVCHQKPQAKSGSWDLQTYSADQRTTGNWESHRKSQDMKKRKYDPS
structure (smiles),measurement,setting,value
COC(=O)CCCC1=CC2=CC(=O)C(C)(OC(=O)c3cccs3)C(=O)C2=CN1CCc1ccccn1 (stereo not drawn),IC50,[1],20.9 µM (active)
same,IC50,[2],9.96 µM (active)
CCN1CCN(c2nn3c(=O)c4ccccc4nc3c3ccccc23)CC1,AC50,Cytochrome P450 2D6,14.1 µM (inconclusive)
same,AC50,Cytochrome P450 3A4,20 µM (inconclusive)
same,AC50,[3],19.9 µM (active)
COc1cccc(N2CCN(CC(=O)Nc3ccc(-n4cnnn4)cc3)CC2)c1,IC50,Steroidogenic factor 1,6.28 µM (active)
Cc1cnc(NC(=O)c2ccc(-c3nc4ccccc4s3)o2)s1,IC50,Orexin receptor type 2 [4],> 88.8 µM (inactive)
same,IC50,[5],> 49.8 µM (inactive)
same,IC50,[6],1.97 µM (active)
same,IC50,Orexin receptor type 2 [7],> 50 µM (inactive)
same,CC50,[8],30.7 µM (active)
same,IC50,[9],333 nM (active)
same,IC50,[10],> 64 µM (inactive)
same,IC50,CHO-K1,62 µM (inactive)
COC(=O)CCCC1=CC2=C(c3ccccc3)C(=O)C(C)(OC(=O)C3CCCC3)C(=O)C2=CN1C1CCCCC1 (stereo not drawn),IC50,[1],13 µM (active)
same,IC50,[2],6.2 µM (active)
COc1ccc2cc(-c3n[nH]cc3CN3CCCC3c3nonc3C)ccc2c1 (stereo not drawn),IC50,[11],85.5 µM (inactive)
COc1ccc(S(=O)(=O)N2CCCCCC2)cc1C(=O)Nc1ccc(C(=O)N(C)C)cc1,IC50,[12],8.07 µM (active)
O=C(CSc1nc(O)c2ccccc2n1)Nc1nc(-c2ccc(Br)cc2)cs1,CC50,Vero,35.9 µM (active)
same,IC50,[13],5.12 µM (active)
CCOc1ccc(CCNC(=O)CN2C(=O)c3cccnc3Oc3ccc(C)cc32)cc1OCC,IC50,[12],9.82 µM (active)
Sc1ncnc2c1ncn2-c1ccc(Cl)cc1,IC50,[14],6.29 µM (active)
same,IC50,[15],1.48 µM (active)
same,IC50,[16],29.4 µM (inactive)
COc1ccc2ncccc2c1Cc1c(OC)ccc2ncccc12,IC50,[17],9.3 µM (active)
O=C(N/N=C/c1ccc(F)cc1)c1cc(-c2ccc3c(c2)OCO3)[nH]n1,IC50,[14],5.14 µM (active)
same,EC50,cells [18],> 350 µM (not active)
same,IC50,[15],6.61 µM (active)
same,EC50,cells [19],> 350 µM (not active)
same,IC50,[20],9.8 µM (active)
same,IC50,[16],> 80 µM (inactive)
COc1ccc(/C=N/Nc2snc(SC)c2C#N)cc1OC,IC50,Orexin receptor type 2 [4],> 88.8 µM (inactive)
same,IC50,[5],> 49.8 µM (inactive)
same,IC50,[6],4.85 µM (active)
same,AC50,Cytochrome P450 2D6,0.282 µM (inconclusive)
same,IC50,Orexin receptor type 2 [7],> 50 µM (inactive)
same,IC50,[9],1930 nM (active)
same,IC50,CHO-K1,> 66.2 µM (inactive)
same,AC50,Cytochrome P450 2C9,12.6 µM (inconclusive)
same,EC50,[21],> 112 µM (not active)
same,EC50,[22],46.8 µM (active)
CN(C)CCNC(=O)c1cccc(-c2cnc3c(NC=O)cc(-c4ccc(C(=O)N5CCOCC5)cc4)cn23)c1,AC50,[23],9.04 µM (active)
same,AC50,[3],47.8 µM (active)
